Converted amounts (≈) assume the structure as drawn. Where a SMILES comes first, the peptide text is derived from it.
Assay: solubility in water at room temperature
Assay type: physicochemical
Excerpt: The two pairs DD/LL-methionylmethionine and DL/LD-methionylmethionine are diastereomeric relative to one another and have different physical data. […] These mixtures can be incorporated/dissolved simply in an aqueous phase or an aqueous surfactant phase of a cosmetic composition.

| solubility at room temperature in water [mg/mL] | Structure (SMILES) |
| --- | --- |
| 21.0 (≈ 74.9 mM) | CSCC[C@H](NC(=O)[C@@H](N)CCSC)C(=O)O [DD/LL-methionylmethionine, methionylmethionine] (H-Met-Met-OH) |
| 0.4 (≈ 1.43 mM) | CSCC[C@H](NC(=O)[C@@H](N)CCSC)C(=O)O [DL/LD-methionylmethionine, methionylmethionine] (H-Met-Met-OH) |

From US20180325793A1, “HIGH-PERFORMANCE COSMETIC PRODUCTS CONTAINING A POLYORGANOSILOXANE AND A DIPEPTIDE” (Evonik Degussa GmbH, priority 2014, published 2018)
